{
  "source": "paper PMC3356383",
  "about": "“Efficacious Intermittent Dosing of a Novel JAK2 Inhibitor in Mouse Models of Polycythemia Vera” (PLoS ONE, 2012)",
  "origin": "cited, not measured here",
  "tested_on": "murine model of PV",
  "parameters": "method as in PMID 18394554",
  "settings": "42 days of continuous treatment; cited from earlier work",
  "data": [
    {"smiles": "Cc1cnc(Nc2ccc(OCCN3CCCC3)cc2)nc1Nc1cccc(S(=O)(=O)NC(C)(C)C)c1", "note": "[TG101348]", "values": [
      {"measurement": "Hematocrit reduction", "value": 18, "unit": "%"}
    ]}
  ]
}
